Values quoted from earlier work as cited in US20060270610A1, “Novel compounds for hypoxic cell therapy and imaging” (priority 2005, published 2006).
Read-outs that look alike come from different tables or passages of the source. Blank lines part the entries; values can stand above or below the compound they belong to.

Assays:
[1] = molecular target: T1, NBMPR (nitrobenzylthioinosine)-sensitive equilibrative nucleoside transporter (Homo sapiens, UniProt Q99808); conditions: in vitro, erythrocytes
T1 construct: equilibrative nucleoside transporter in erythrocytes; endogenous in cells
T1 sequence (Q99808 1-456): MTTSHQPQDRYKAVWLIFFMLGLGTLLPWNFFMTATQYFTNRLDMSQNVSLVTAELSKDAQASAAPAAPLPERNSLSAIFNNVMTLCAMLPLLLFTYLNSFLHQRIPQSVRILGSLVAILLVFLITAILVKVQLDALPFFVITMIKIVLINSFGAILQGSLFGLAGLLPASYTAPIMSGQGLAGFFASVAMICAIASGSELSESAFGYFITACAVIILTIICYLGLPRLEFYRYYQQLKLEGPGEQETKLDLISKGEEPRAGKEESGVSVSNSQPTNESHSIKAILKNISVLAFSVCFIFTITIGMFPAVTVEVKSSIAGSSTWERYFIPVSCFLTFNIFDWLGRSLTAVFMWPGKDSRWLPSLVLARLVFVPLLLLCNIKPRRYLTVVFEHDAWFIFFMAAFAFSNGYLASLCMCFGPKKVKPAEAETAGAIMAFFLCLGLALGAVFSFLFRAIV

[2] = rats, via the renal system; compared with [18F]FMISO
[3] = tested on: murine tumor models; conditions: three different murine tumor models; greater than [18F]FMISO

SMILES: O=[N+]([O-])c1nccn1[C@H]1O[C@H](CI)[C@@H](O)[C@@H]1O [IAZA, 1-α-D-(5-dexoy-5-iodorabinofuranosyl)-2-nitroimidazole]
transport by NBMPR-sensitive equilibrative nucleoside transporter [1]: not transported

uptake in normal brain tissue (patients studied sequentially): absence of [^18F] 1-α-D-FAZA uptake
clearance from blood, viscera and muscle tissue [2]: faster clearance
SMILES: O=[N+]([O-])c1nccn1[C@H]1O[C@H](C[18F])[C@@H](O)[C@@H]1O [[^18F] 1-α-D-FAZA]
tumor:blood ratios relative to [18F]FMISO [3]: 2-4 times

SMILES: OC[C@H]1OC(O)[C@H]([18F])[C@@H](O)[C@@H]1O (stereo partly drawn) [[^18F]FDG]
uptake in normal brain tissue (human, in vivo): taken up as a reflection of glucose metabolism in healthy brain

SMILES: O=[N+]([O-])c1nccn1CC(O)C[18F] (stereo not drawn) [[^18F]FMISO]
uptake in normal brain tissue (human, in vivo): taken up non-specifically by brain
